Columns and labels:
HCC1954 tumor cells = assay: Cytotoxicity, MTS assay, HCC1954; assay type: cell-based; settings: Homo sapiens, 72 hours
Method: (§1) Tumor cells were grown as adherent monolayers at 37° C. in a humidified atmosphere (5% CO2, 95% air). The culture medium was RPMI 1640 containing 2 mM L-glutamine (Ref BE12-702F, Cambrex, Verviers, Belgium) and supplemented with 10% fetal bovine serum (Ref DE14-801E, Cambrex). For experimental use, the adherent tumour cells were detached from the culture flask by a 5-minute treatment with trypsin-versene (Ref O2-007E, Cambrex), diluted in Hanks' medium without calcium or magnesium (Ref BE10-543F, Cambrex) and neutralized by addition of complete culture medium. Before use, cells were counted in a hemocytometer and their viability were assessed by 0.25% trypan blue exclusion. Mycoplasma detection was performed using the MycoAlert® Mycoplasma Detection Kit (Ref LT07-318, Cambrex) in accordance with the manufacturer instructions. The MycoAlert®Assay is a selective biochemical test that exploits the activity of mycoplasmal enzymes. The viable mycoplasma are lysed and the enzymes react with the MycoAlert® substrate catalyzing the conversion of ADP to ATP. By measuring the level of ATP in a sample both before and after the addition of the MycoAlert® substrate a ratio can be obtained which is indicative of the presence or absence of mycoplasma. The mycoplasma test was assayed in duplicate from the culture supernatants of the cell lines and compared to negative and positive controls (MycoAlert® Assay Control Set, Ref LT07-518, Cambrex) (Internal Standard Operating Procedure No TEC-007/002). Both HCC1954 and SK-BR-3 tumour cells (5,000 cells per well) were plated in 96-well flat-bottom microtitration plates (Ref 167008, Nunc, Dutscher, Brumath, France) and incubated at 37° C. for 24 hours before treatment in 190 μl of drug-free culture medium supplemented with 10% FBS. Both HCC1954 and SK-BR-3 tumour cell lines were incubated for 72 hours with […], in ¼ dilution steps, of the test substances (ranging from […]) to be tested as well as paclitaxel (ranging from 10^−7 to 10^−12 M). The cells (190 μl) will be incubated in a 200 μl final volume of culture medium supplemented with 10% FBS containing test substances at 37° C. under 5% CO2. One experiment is performed, each concentration being issued from quadruplicate. Control cells are treated with corresponding vehicle alone. At the end of treatments, the cytotoxic activity is evaluated by a MTS assay. […] Like MTT, MTS is bioreduced by cells into a formazan product that is directly soluble in culture medium without processing, unlike MTT.
(§2) At the end of the cells treatment, 40 μl of a 0.22 μm filtered freshly combined solution of MTS (20 ml at 2 mg/ml, Ref G1111A, Promega, Charbonnières, France) and PMS (1 ml at 0.92 mg/ml, Ref P9625, Sigma) in Dulbecco's Phosphate Buffered Saline (DPBS, Ref 17-513F, Cambrex), were added in each well. Culture plates were incubated for 2 h at 37° C. Absorbency (OD) will be measured at 490 nm in each well using VICTOR^3™ 1420 multilabeled counter (Wallac, PerkinElmer, Courtaboeuf, France).

SK-BR-3 tumor cells = assay: Cytotoxicity, MTS assay, SK-BR-3; assay type: cell-based; settings: Homo sapiens, 72 hours
Method: as §1, §2

SRC = target: T1, SRC (Homo sapiens, UniProt P12931); assay: Radiometric protein kinase assay, SRC; assay type: biochemical; settings: 1 μM ATP; read-out: Inhibitory activity (IC50:μM) SRC
T1 construct: host or cells: Sf9 insect cells (baculovirus)
Source text: (§3) All protein kinases were expressed in Sf9 insect cells as human recombinant GST-fusion proteins or His-tagged proteins by means of the baculovirus expression system. Kinases were purified by affinity chromatography using either GSH-agarose (Sigma) or Ni-NTH-agarose (Qiagen). The purity of each kinase was checked by SDS-PAGE/silver staining and the identity of each kinase was verified by western blot analysis with kinase specific antibodies or by mass spectroscopy.
(§4) A radiometric protein kinase assay (^33PanQinase® Activity Assay) was used for measuring the kinase activity of the 24 protein kinases. All kinase assays were performed in 96-well FlashPlates™ from Perkin Elmer (Boston, Mass., USA) in a 50 μl reaction volume. The reaction cocktail was pipetted in 4 steps in the following order: • 20 μl of assay buffer • 5 μl of ATP solution (in H2O) • 5 μl of test compound (in 10% DMSO) • 10 μl of substrate/10 […] of enzyme solution (premixed)
(§5) The assay for all enzymes contained 60 mM HEPES-NaOH, pH 7.5, 3 mM MgCl2, 3 mM MnCl2, 3 μM Na-orthovanadate, 1.2 mM DTT, 50 μg/ml PEG20000, 1 μM [γ-^33P]-ATP (approx. 5×10^05 cpm per well).
(§6) For the 24 kinase assays, the following amounts of enzyme and substrate were used per well:
(§7) The reaction cocktails were incubated at 30° C. for 80 minutes. The reaction was stopped with 50 μl of 2% (v/v) H3PO4, plates were aspirated and washed two times with 200 μl of 0.9% (w/v) NaCl or 200 μl H2O. Incorporation of ^33Pi was determined with a microplate scintillation counter (Microbeta Trilux, Wallac).
(§8) The median value of the counts in column 1 (n=8) of each assay plate was defined as “low control”. This value reflects unspecific binding of radioactivity to the plate in the absence of a protein kinase but in the presence of the substrate. The median value of the counts in column 7 of each assay plate (n=8) was taken as the “high control”, i.e. full activity in the absence of any inhibitor. The difference between high and low control was taken as 100% activity.
(§9) As part of the data evaluation the low control value from a particular plate was subtracted from the high control value as well as from all 80 “compound values” of the corresponding plate. The residual activity (in %) for each well of a particular plate was calculated by using the following formula: Res. Activity (%)=100×[(cpm of compound−low control)/(high control−low control)]
(§10) The residual activities for each concentration and the compound IC50 values were calculated using Quattro Workflow V2.1.0.0 (Quattro Research GmbH, Munich, Germany; www.quattro-research.com). The model used was “Sigmoidal response (variable slope)” with parameters “top” fixed at 100% and “bottom” at 0%.

Aurora-A = target: T2, Aurora-A (Homo sapiens, UniProt O14965); assay: Radiometric protein kinase assay, Aurora-A; assay type: biochemical; settings: 1 μM ATP; read-out: Inhibitory activity (IC50:μM) Aurora-A
T2 construct: host or cells: Sf9 insect cells (baculovirus)
T2 sequence (O14965 1-403): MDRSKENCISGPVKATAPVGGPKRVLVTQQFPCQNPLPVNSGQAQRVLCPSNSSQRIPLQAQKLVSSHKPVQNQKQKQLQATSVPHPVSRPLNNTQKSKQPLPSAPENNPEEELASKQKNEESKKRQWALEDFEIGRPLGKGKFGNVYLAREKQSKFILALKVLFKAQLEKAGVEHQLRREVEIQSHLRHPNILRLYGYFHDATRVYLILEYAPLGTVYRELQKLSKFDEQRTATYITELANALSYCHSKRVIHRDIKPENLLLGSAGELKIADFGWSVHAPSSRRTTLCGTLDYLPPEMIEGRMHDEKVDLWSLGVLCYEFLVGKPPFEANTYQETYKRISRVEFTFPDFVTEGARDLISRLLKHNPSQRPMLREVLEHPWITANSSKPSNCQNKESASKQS
Source text: as §3, §4, §5, §6, §7, §8, §9, §10

IGF1-R = target: T3, IGF1-R (Homo sapiens, UniProt P08069); assay: Radiometric protein kinase assay, IGF1-R; assay type: biochemical; settings: 1 μM ATP; read-out: Inhibitory activity (IC50:μM) IGF1-R
T3 construct: host or cells: Sf9 insect cells (baculovirus)
Source text: as §3, §4, §5, §6, §7, §8, §9, §10

EGF-R = target: T4, EGF-R (Homo sapiens, UniProt P00533); assay: Radiometric protein kinase assay, EGF-R; assay type: biochemical; settings: 1 μM ATP; read-out: Inhibitory activity (IC50:μM) EGF-R
T4 construct: host or cells: Sf9 insect cells (baculovirus)
Source text: as §3, §4, §5, §6, §7, §8, §9, §10

HSP90 = HSP90 (Homo sapiens, UniProt P07900); assay: HSP90 affinity, competition assay with geldanamycin; assay type: binding
panel of 24 kinase = assay: Radiometric protein kinase assay (33PanQinase), panel of 24 kinases; assay type: biochemical, human; settings: at 10 μM
Source text: as §3
A radiometric protein kinase assay (^33PanQinase® Activity Assay) was used for measuring the kinase activity of the 24 protein kinases.
as §5, §7, §8, §9

T3 sequence (P08069 31-1367): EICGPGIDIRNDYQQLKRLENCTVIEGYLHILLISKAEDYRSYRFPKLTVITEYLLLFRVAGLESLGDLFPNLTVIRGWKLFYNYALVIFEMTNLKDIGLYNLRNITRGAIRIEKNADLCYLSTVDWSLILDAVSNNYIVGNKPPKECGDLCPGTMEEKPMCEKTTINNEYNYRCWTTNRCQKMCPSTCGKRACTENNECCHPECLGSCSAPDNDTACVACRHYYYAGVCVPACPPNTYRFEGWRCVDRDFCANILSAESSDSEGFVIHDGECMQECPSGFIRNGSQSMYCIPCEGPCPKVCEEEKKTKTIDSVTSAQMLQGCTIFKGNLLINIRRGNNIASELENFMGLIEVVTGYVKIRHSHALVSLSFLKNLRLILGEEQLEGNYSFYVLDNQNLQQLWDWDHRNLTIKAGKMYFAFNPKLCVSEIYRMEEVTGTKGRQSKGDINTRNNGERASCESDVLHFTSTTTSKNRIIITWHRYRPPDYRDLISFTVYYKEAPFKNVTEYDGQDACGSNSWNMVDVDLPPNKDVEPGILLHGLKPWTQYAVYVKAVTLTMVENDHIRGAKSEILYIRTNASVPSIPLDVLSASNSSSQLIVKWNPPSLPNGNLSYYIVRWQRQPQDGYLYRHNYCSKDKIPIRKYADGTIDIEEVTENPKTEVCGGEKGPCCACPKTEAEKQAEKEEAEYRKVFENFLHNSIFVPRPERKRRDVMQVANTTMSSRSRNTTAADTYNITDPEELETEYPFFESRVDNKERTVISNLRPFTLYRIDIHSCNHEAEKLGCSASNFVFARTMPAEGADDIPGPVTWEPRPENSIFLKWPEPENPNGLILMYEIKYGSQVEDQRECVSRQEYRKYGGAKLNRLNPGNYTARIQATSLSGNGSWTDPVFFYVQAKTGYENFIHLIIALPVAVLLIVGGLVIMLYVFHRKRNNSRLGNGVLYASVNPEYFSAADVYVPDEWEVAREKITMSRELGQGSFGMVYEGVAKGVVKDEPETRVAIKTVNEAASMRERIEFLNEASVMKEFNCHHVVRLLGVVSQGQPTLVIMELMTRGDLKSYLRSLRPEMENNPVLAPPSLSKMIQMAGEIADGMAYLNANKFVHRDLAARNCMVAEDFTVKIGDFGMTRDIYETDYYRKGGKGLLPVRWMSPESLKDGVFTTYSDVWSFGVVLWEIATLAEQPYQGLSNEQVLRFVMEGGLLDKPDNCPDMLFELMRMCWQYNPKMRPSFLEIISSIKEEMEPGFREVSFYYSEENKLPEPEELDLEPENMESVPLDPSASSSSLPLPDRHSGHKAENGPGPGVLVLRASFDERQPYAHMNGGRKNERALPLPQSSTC
T1 sequence (P12931 whole entry): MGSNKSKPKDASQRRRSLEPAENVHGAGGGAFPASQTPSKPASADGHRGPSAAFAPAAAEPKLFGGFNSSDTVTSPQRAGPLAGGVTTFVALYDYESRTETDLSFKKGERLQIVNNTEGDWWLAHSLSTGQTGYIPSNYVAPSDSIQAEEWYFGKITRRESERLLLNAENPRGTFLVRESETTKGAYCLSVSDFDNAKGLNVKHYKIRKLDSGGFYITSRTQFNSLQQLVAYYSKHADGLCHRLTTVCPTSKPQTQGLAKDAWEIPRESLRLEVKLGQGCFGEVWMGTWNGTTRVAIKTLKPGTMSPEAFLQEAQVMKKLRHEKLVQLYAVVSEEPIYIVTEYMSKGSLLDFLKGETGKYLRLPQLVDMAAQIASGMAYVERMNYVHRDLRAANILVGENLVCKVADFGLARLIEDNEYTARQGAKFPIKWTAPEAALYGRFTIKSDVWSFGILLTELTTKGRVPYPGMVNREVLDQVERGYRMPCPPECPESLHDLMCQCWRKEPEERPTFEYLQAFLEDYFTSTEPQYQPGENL
T4 sequence (P00533 25-1210): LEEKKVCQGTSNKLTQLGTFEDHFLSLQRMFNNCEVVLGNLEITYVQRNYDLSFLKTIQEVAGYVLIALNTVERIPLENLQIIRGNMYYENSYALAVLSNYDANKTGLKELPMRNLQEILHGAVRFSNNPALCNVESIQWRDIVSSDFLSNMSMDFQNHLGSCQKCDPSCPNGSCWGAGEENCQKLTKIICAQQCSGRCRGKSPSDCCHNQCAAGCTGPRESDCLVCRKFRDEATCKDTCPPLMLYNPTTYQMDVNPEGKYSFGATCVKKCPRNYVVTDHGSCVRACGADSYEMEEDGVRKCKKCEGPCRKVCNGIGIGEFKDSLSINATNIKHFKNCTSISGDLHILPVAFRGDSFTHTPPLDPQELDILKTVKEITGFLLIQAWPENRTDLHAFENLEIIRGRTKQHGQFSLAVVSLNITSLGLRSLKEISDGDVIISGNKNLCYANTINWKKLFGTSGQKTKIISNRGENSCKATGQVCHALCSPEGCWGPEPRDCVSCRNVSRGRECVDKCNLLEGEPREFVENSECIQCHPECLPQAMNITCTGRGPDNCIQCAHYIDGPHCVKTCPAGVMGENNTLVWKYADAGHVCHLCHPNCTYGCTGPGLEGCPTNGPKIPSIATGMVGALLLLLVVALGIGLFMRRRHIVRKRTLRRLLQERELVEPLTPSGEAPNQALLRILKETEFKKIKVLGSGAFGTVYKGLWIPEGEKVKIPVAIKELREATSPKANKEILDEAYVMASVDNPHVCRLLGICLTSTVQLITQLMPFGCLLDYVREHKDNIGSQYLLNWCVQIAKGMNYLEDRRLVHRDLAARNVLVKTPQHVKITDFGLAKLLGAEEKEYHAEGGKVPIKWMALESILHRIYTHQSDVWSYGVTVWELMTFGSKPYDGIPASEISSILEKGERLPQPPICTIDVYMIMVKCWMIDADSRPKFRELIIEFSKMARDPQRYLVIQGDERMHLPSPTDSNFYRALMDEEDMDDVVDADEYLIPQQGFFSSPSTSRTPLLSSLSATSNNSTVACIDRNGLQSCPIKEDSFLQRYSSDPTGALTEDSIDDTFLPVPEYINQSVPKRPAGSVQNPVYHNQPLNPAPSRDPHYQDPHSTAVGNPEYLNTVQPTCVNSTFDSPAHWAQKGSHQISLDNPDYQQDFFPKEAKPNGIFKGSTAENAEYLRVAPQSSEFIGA

SMILES | EC50 (HCC1954 tumor cells) | EC50 (SK-BR-3 tumor cells) | further results
COC1CC/C=C/CCOC(=O)c2c(O)cc(O)c(Cl)c2C/C(=N/OCC(=O)N2CCCCC2)C1 (stereo not drawn) [2a-10] | > 10 µM | > 10 µM | 
O=C1OCC/C=C/CC/C=C/C(=NOCC(=O)N2CCCCCC2)Cc2c(Cl)c(O)cc(O)c21 [2a-11] | 0.52 µM | 0.31 µM | 
C[C@@H]1C/C=C/CC/C=C/C(=O)Cc2c(Cl)c(O)cc(O)c2C(=O)O1 [2a-14] | 1.2 µM | 2.8 µM | 
O=C1OCC/C=C/CC/C=C/C(=NOCC(=O)N2CCNCC2)Cc2c(Cl)c(O)cc(O)c21 [2a-15] | > 10 µM | > 10 µM | 
O=C(CON=C1/C=C/CC/C=C/CCOC(=O)c2c(O)cc(O)c(Cl)c2C1)NC1CCCCC1 [2a-16] | 0.45 µM | 0.55 µM | 
O=C(CON=C1/C=C/CC/C=C/CCOC(=O)c2c(O)cc(O)c(Cl)c2C1)NCc1ccccc1 [2a-17] | 8.5 µM | 3.5 µM | 
O=C1OCC/C=C/CC/C=C/C(=NOCC(=O)N2CCOCC2)Cc2c(Cl)c(O)cc(O)c21 [2a-18] | > 10 µM | > 10 µM | 
CCON=C1/C=C/CC/C=C/CCOC(=O)c2c(O)cc(O)c(Cl)c2C1 [2a-22] | 9.8 µM | 3.8 µM | 
COC1CC/C=C/C[C@H](c2ccccc2)OC(=O)c2c(O)cc(O)c(Cl)c2CC(=O)C1 (stereo partly drawn) [A2] |  |  | IC50 (SRC): 8 µM
O=C1Cc2c(Cl)c(O)cc(O)c2C(=O)O[C@H](c2ccccc2)C/C=C/CCC(Cl)C1 (stereo partly drawn) [A3] |  |  | IC50 (Aurora-A): 12 µM
O=C1/C=C/CCC2OC2C[C@H](c2ccccc2)OC(=O)c2c(O)cc(O)c(Cl)c2C1 (stereo partly drawn) [A5] |  |  | IC50 (IGF1-R): 11 µM
CCOCOc1cc2c(c(OCOCC)c1)C(=O)O[C@H](c1ccccc1)C/C=C/CC/C=C/C(=O)C2 [A-1] |  |  | IC50 (SRC): 11 µM; IC50 (EGF-R): 33 µM; IC50 (IGF1-R): 23 µM
C[C@@H]1C/C=C/CC/C=C/C(=O)Cc2c(Cl)c(O)cc(O)c2C(=O)O1 [pochonin D, reference compound] |  |  | IC50 (HSP90): 0.08 µM; inhibition in a panel of 24 kinase (panel of 24 kinase): no significant activity
